Laboratory results: the NIST ThermoML archive (doi:10.1021/je030107c)
Values joined by “and” are separate entries in the source; they are usually repeats but may differ in a detail not shown here. Equal entries are not always repeated. ± gives the expanded uncertainty stated by the source.

How the values were obtained:
[1] = xn = mol fraction of the nth substance listed; conditions: 101.3 kPa, Liquid; for viscosity: Capillary tube (Ostwald / Ubbelohde) method; for speed of sound: Linear variable-path acoustic interferometer; for mass density: Pycnometric method
[2] = refractive index (Na D-line) (dimensionless); xn = mol fraction of the nth substance listed; conditions: 101.3 kPa, Liquid, Standard Abbe refractometry
[3] = 101.3 kPa, Liquid; for viscosity: Capillary tube (Ostwald / Ubbelohde) method; for speed of sound: Linear variable-path acoustic interferometer; for mass density: Pycnometric method
[4] = refractive index (Na D-line) (dimensionless); conditions: 101.33 kPa, Liquid, Standard Abbe refractometry

CCCCCC [hexane] + C1COCCO1
x2 = 0
Conditions | mass density, 298.15 K [kg/m3] | mass density, 303.15 K [kg/m3] | mass density, 308.15 K [kg/m3] | refractive index, 298.15 K | refractive index, 303.15 K | refractive index, 308.15 K | speed of sound, 298.15 K [m/s] | viscosity, 298.15 K [mPa·s] | viscosity, 303.15 K [mPa·s] | viscosity, 308.15 K [mPa·s]
[1] | 654.8 ± 0.4 | 649.7 ± 0.4 | 644.8 ± 0.4 | – | – | – | 1083 ± 3 | 0.315 ± 0.003 | 0.299 ± 0.003 | 0.286 ± 0.003
[2] | – | – | – | 1.3728 ± 0.0011 | 1.3698 ± 0.0011 | 1.367 ± 0.0011 | – | – | – | –

C1COCCO1 [1,4-dioxane] + CCN(CC)CC
x1 = 1
Conditions | mass density, 298.15 K [kg/m3] | mass density, 303.15 K [kg/m3] | mass density, 308.15 K [kg/m3] | refractive index, 298.15 K | refractive index, 303.15 K | refractive index, 308.15 K | speed of sound, 298.15 K [m/s] | viscosity, 298.15 K [mPa·s] | viscosity, 303.15 K [mPa·s] | viscosity, 308.15 K [mPa·s]
[1] | 1027.6 ± 0.6 | 1021.9 ± 0.6 | 1016.2 ± 0.6 | – | – | – | 1343 ± 3 | 1.166 ± 0.009 | 1.069 ± 0.008 | 0.984 ± 0.008
[2] | – | – | – | 1.4201 ± 0.0011 | 1.417 ± 0.0011 | 1.4143 ± 0.0011 | – | – | – | –

C1COCCO1 [1,4-dioxane] + CCCCN(CCCC)CCCC
x1 = 1
Conditions | mass density, 298.15 K [kg/m3] | mass density, 303.15 K [kg/m3] | mass density, 308.15 K [kg/m3] | refractive index, 298.15 K | refractive index, 303.15 K | refractive index, 308.15 K | speed of sound, 298.15 K [m/s] | viscosity, 298.15 K [mPa·s] | viscosity, 303.15 K [mPa·s] | viscosity, 308.15 K [mPa·s]
[1] | 1027.6 ± 0.6 | 1021.9 ± 0.6 | 1016.2 ± 0.6 | – | – | – | 1343 ± 3 | 1.166 ± 0.009 | 1.069 ± 0.008 | 0.984 ± 0.008
[2] | – | – | – | 1.4201 ± 0.0011 | 1.417 ± 0.0011 | 1.4143 ± 0.0011 | – | – | – | –

OCCO [1,2-ethanediol]
Conditions | mass density, 298.15 K [kg/m3] | mass density, 303.15 K [kg/m3] | mass density, 308.15 K [kg/m3] | refractive index, 298.15 K | refractive index, 303.15 K | refractive index, 308.15 K | speed of sound, 298.15 K [m/s] | viscosity, 298.15 K [mPa·s] | viscosity, 303.15 K [mPa·s] | viscosity, 308.15 K [mPa·s]
[3] | 1111.3 ± 0.6 | 1107.3 ± 0.6 | 1103.5 ± 0.6 | – | – | – | 1659 ± 3 | 12.62 ± 0.09 | 9.618 ± 0.066 | 7.539 ± 0.053
[4] | – | – | – | 1.4307 ± 0.0011 | 1.4269 ± 0.0011 | 1.4246 ± 0.0011 | – | – | – | –

OCCO [1,2-ethanediol] + C1COCCO1
x2 = 0
Conditions | mass density, 298.15 K [kg/m3] | mass density, 303.15 K [kg/m3] | mass density, 308.15 K [kg/m3] | refractive index, 298.15 K | refractive index, 303.15 K | refractive index, 308.15 K | speed of sound, 298.15 K [m/s] | viscosity, 298.15 K [mPa·s] | viscosity, 303.15 K [mPa·s] | viscosity, 308.15 K [mPa·s]
[1] | 1111.3 ± 0.6 | 1107.3 ± 0.6 | 1103.5 ± 0.6 | – | – | – | 1659 ± 3 | 12.62 ± 0.09 | 9.618 ± 0.066 | 7.539 ± 0.053
[2] | – | – | – | 1.4307 ± 0.0011 | 1.4269 ± 0.0011 | 1.4246 ± 0.0011 | – | – | – | –

CCCCN(CCCC)CCCC [tributylamine]
Conditions | mass density, 298.15 K [kg/m3] | mass density, 303.15 K [kg/m3] | mass density, 308.15 K [kg/m3] | refractive index, 298.15 K | refractive index, 303.15 K | refractive index, 308.15 K | speed of sound, 298.15 K [m/s] | viscosity, 298.15 K [mPa·s] | viscosity, 303.15 K [mPa·s] | viscosity, 308.15 K [mPa·s]
[3] | 774.4 ± 0.4 | 770.1 ± 0.4 | 766.2 ± 0.4 | – | – | – | 1261 ± 3 | 1.36 ± 0.011 | 1.221 ± 0.01 | 1.125 ± 0.009
[4] | – | – | – | 1.4274 ± 0.0011 | 1.4251 ± 0.0011 | 1.4226 ± 0.0011 | – | – | – | –

CCCCCC [hexane]
Conditions | mass density, 298.15 K [kg/m3] | mass density, 303.15 K [kg/m3] | mass density, 308.15 K [kg/m3] | refractive index, 298.15 K | refractive index, 303.15 K | refractive index, 308.15 K | speed of sound, 298.15 K [m/s] | viscosity, 298.15 K [mPa·s] | viscosity, 303.15 K [mPa·s] | viscosity, 308.15 K [mPa·s]
[3] | 654.8 ± 0.4 | 649.7 ± 0.4 | 644.8 ± 0.4 | – | – | – | 1083 ± 3 | 0.315 ± 0.003 | 0.299 ± 0.003 | 0.286 ± 0.003
[4] | – | – | – | 1.3728 ± 0.0011 | 1.3698 ± 0.0011 | 1.367 ± 0.0011 | – | – | – | –

C1COCCO1 [1,4-dioxane]
Conditions | mass density, 298.15 K [kg/m3] | mass density, 303.15 K [kg/m3] | mass density, 308.15 K [kg/m3] | refractive index, 298.15 K | refractive index, 303.15 K | refractive index, 308.15 K | speed of sound, 298.15 K | viscosity, 298.15 K [mPa·s] | viscosity, 303.15 K [mPa·s] | viscosity, 308.15 K [mPa·s]
[3] | 1027.6 ± 0.6 | 1021.9 ± 0.6 | 1016.2 ± 0.6 | – | – | – | 1347 ± 3 m/s and 1343 ± 3 m/s | 1.166 ± 0.009 | 1.069 ± 0.008 | 0.984 ± 0.008
[4] | – | – | – | 1.4201 ± 0.0011 | 1.417 ± 0.0011 | 1.4143 ± 0.0011 | – | – | – | –

CCN(CC)CC [triethylamine]
Conditions | mass density, 298.15 K [kg/m3] | mass density, 303.15 K [kg/m3] | mass density, 308.15 K [kg/m3] | refractive index, 298.15 K | refractive index, 303.15 K | refractive index, 308.15 K | speed of sound, 298.15 K [m/s] | viscosity, 298.15 K [mPa·s] | viscosity, 303.15 K [mPa·s] | viscosity, 308.15 K [mPa·s]
[3] | 723.1 ± 0.2 | 718.5 ± 0.3 | 713.6 ± 0.3 | – | – | – | 1127 ± 2 | 0.363 ± 0.003 | 0.347 ± 0.003 | 0.33 ± 0.003
[4] | – | – | – | 1.3983 ± 0.001 | 1.3955 ± 0.001 | 1.3926 ± 0.001 | – | – | – | –
